A short description of series [1]: Solubility of Lenalidomide modifications: saturated solutions in three media, HPLC analysis. It counts as physicochemical. On the procedure: As the case for their visual appearance, also the solubility of those different Lenalidomide modifications is quite different.
• Solubilities are determined by preparing saturated solutions in the three media, followed by HPLC-analysis.

Series [2] is described as follows: Particle size distribution (d90), Malvern Mastersizer 2000, wet dispersion in cyclohexane. It counts as physicochemical. On the procedure: The D90 value is defined such that 90% by volume of the particles have a particle size smaller than the d90 value and 10% by volume of the particles have a greater particle size greater than the d90 value.
Sample solution. Place 50 mg of well mixed sample to a 100 mL beaker. Add 25 mL of cyclohexane. Using Pasteur pipette transfer small aliquots of sample slurry to the measuring cuvette until the concentration reading is good. The beaker is swirled efficiently before each pipetting.
Measurement according to the operating instructions. Perform three successive determinations, from which calculate the mean value.

The mark [3] stands for this setting: as prepared in reference example 1 (not milled).
[4] abbreviates: 0.1M hydrochloric acid, pH 1, simulated gastric fluid, thermodynamic from solid, 0.1M HCl, pH 1.0, read-out: Solubility.
[5] abbreviates: acetate buffer, pH 4.5, aqueous buffer, thermodynamic from solid, Acetate buffer, pH 4.5, read-out: Solubility.
Setting [6] is: phosphate buffer, pH 6.8, aqueous buffer, thermodynamic from solid, Phosphate buffer, pH 6.8, read-out: Solubility.

As usually defined, the Solubility is the concentration that dissolves in the medium under given conditions.

Structures are written as SMILES. Converted amounts (≈) assume the structure as drawn. Structures can show the parent of a compound that is named as a salt. Where two headings read alike, the source gives them in different places.

With `Nc1cccc2c1CN(C1CCC(=O)NC1=O)C2=O` (racemic) [Base form A, (RS)-3-(4-Amino-1-oxo 1,3-dihydro-2H-isoindol-2-yl)piperidine-2,6-dione], the Solubility in series [1] (0.1M HCl, pH 1.0) was 4760 µg/mL (≈ 18400 µM); in series [1] (Acetate buffer, pH 4.5), 430 µg/mL (≈ 1660 µM); in series [1] (Phosphate buffer, pH 6.8), 390 µg/mL (≈ 1500 µM). Moreover, the “PSD, d90” value in series [2] (setting [3]) turned out to be 219 μm; in series [2] (example 2, after milling 15 min at 20 Hz), 35 μm.
Consider `Nc1cccc2c1CN(C1CCC(=O)NC1=O)C2=O` (stereo not shown) [DMSO solvate], for which the Solubility in series [1] (setting [4]) is 6330 µg/mL; in series [1] (setting [5]) it was 380 µg/mL; in series [1] (setting [6]), 350 µg/mL.
As to `Nc1cccc2c1CN(C1CCC(=O)NC1=O)C2=O` (stereo not shown) [NH4Cl cocrystal], the Solubility in series [1] (0.1M HCl, pH 1.0) worked out at 7760 µg/mL; in series [1] (Acetate buffer, pH 4.5), 420 µg/mL; in series [1] (Phosphate buffer, pH 6.8), 360 µg/mL. Moreover, the “PSD, d90” value in series [2] (setting [3]) was determined as 383 μm; in series [2] (example 2, after milling 15 min at 20 Hz, listed as Ammonium chloride cocrystal), 31 μm.
Consider `Nc1cccc2c1CN(C1CCC(=O)NC1=O)C2=O` (racemic) [Base form B, (RS)-3-(4-Amino-1-oxo 1,3-dihydro-2H-isoindol-2-yl)piperidine-2,6-dione], for which the Solubility was 2740 µg/mL (≈ 10600 µM) in series [1] (setting [4]), 330 µg/mL (≈ 1270 µM) in series [1] (setting [5]) and 330 µg/mL (≈ 1270 µM) in series [1] (setting [6]).
Consider `Nc1cccc2c1CN(C1CCC(=O)NC1=O)C2=O` (stereo not shown) [HCl salt], for which the Solubility turned out to be 9000 µg/mL in series [1] (0.1M HCl, pH 1.0); 370 µg/mL in series [1] (Acetate buffer, pH 4.5); 330 µg/mL in series [1] (Phosphate buffer, pH 6.8). Further, in series [1] (0.1M hydrochloric acid at pH1), the “Solubility relative to base form B” value was “more than 3 times”. In addition, the “PSD, d90” value was found to be 434 μm in series [2] (setting [3]) and 43 μm in series [2] (example 2, after milling 15 min at 20 Hz, listed as Hydrochloride salt).
